# Experimental data as given in patent US8952024B2, “Herbicidal pyrimidone derivatives” (E I du Pont de Nemours and Company, priority 2009, dated 2015).
# Read-outs that look alike come from different tables or passages of the source.
# Experiments:
# Type in all cases: in vivo
# [1] = test system: Italian ryegrass (Lolium multiflorum); assay: Test B pre-/postemergence plant response; conditions: Postemergence
# Procedure, shortened: (§1)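 Visually scored on a 0 to 100 scale after 13 to 15 days in greenhouse versus controls. Treatments were preemergence on seeded loam/sand soil and postemergence on 1- to 4-leaf plants.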
# [2] = test system: giant foxtail (Setaria faberii); assay: Test B pre-/postemergence plant response; conditions: Postemergence
# Procedure, shortened: as §1
# [3] = test system: ragweed (common ragweed, Ambrosia elatior); assay: Test B pre-/postemergence plant response; conditions: Postemergence
# Procedure, shortened: as §1
# [4] = test system: canarygrass (Phalaris minor); assay: Test B postemergence plant response; conditions: Postemergence
# From the text: (§2) At the same time, plants selected from these crop and weed species and also winter barley (Hordeum vulgare), canarygrass (Phalaris minor), chickweed (Stellaria media) and windgrass (Apera spica-venti) were planted in pots containing Redi-Earth® planting medium (Scotts Company, 14111 Scottslawn Road, Marysville, Ohio 43041) comprising spaghnum peat moss, vermiculite, wetting agent and starter nutrients and treated with postemergence applications of some of the test chemicals formulated in the same manner. Plants ranged in height from 2 to 18 cm (1- to 4-leaf stage) for postemergence treatments.
# (§3) Treated plants and controls were maintained in a greenhouse for 13 to 15 days, after which time all treated plants were visually evaluated and compared to controls. Plant response ratings, summarized in Table B, are based on a scale of 0 to 100 where 0 is no effect and 100 is complete control. A dash (-) response means no test result.
# [5] = test system: chickweed (Stellaria media); assay: Test B postemergence plant response; conditions: Postemergence
# From the text: as §2, §3
# [6] = test system: windgrass (Apera spica-venti); assay: Test B postemergence plant response; conditions: Postemergence
# From the text: as §2, §3
# [7] = test system: winter barley (Hordeum vulgare); assay: Test B postemergence plant response; conditions: for Plant response rating, Barley: Postemergence
# From the text: as §2, §3
# [8] = test system: barnyardgrass (Echinochloa crus-galli); assay: Test B flooded paddy test; conditions: for pest or weed control at 250 g/ha / pest or weed control at 31 g/ha / pest or weed control at 62 g/ha / pest or weed control at 125 g/ha: Echinochloa crus-galli, 360 h; for pest or weed control at 250 g/ha: read-out: Plant response rating, Flood, Barnyardgrass; for pest or weed control at 31 g/ha / pest or weed control at 62 g/ha / pest or weed control at 125 g/ha / Plant response rating, Barnyardgrass: Flood (flooded paddy test), 13 to 15 days; for pest or weed control at 31 g/ha / pest or weed control at 62 g/ha / pest or weed control at 125 g/ha: read-out: Plant response rating, Barnyardgrass
# Procedure, shortened: (§4)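 Flooded-pot test: water raised to 3 cm above soil when treating, compound put in the water, level unchanged thereafter. Plants were at 2 leaves. Readout after 13 to 15 days, visual, relative to controls; 0 signifies no effect and 100 complete control.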
# [9] = test system: ducksalad (Heteranthera limosa); assay: Test B flooded paddy test; conditions: for pest or weed control at 250 g/ha / pest or weed control at 31 g/ha / pest or weed control at 62 g/ha / pest or weed control at 125 g/ha: Heteranthera limosa, 360 h; for pest or weed control at 250 g/ha: read-out: Plant response rating, Flood, Ducksalad; for pest or weed control at 31 g/ha / pest or weed control at 62 g/ha / pest or weed control at 125 g/ha / Plant response rating, Ducksalad: Flood (flooded paddy test), 13 to 15 days; for pest or weed control at 31 g/ha / pest or weed control at 62 g/ha / pest or weed control at 125 g/ha: read-out: Plant response rating, Ducksalad
# Procedure, shortened: as §4
# rice (Oryza sativa) = assay: Test B flooded paddy test; conditions: for plant injury at 250 g/ha / plant injury at 31 g/ha / plant injury at 62 g/ha / plant injury at 125 g/ha: Oryza sativa; for plant injury at 250 g/ha: read-out: Plant response rating, Flood, Rice; for plant injury at 31 g/ha / plant injury at 62 g/ha / plant injury at 125 g/ha / Plant response rating, Rice: Flood (flooded paddy test), 13 to 15 days; for plant injury at 31 g/ha / plant injury at 62 g/ha / plant injury at 125 g/ha: read-out: Plant response rating, Rice
# Procedure, shortened: as §4
# [10] = test system: umbrella sedge (Cyperus difformis); assay: Test B flooded paddy test; conditions: for pest or weed control at 250 g/ha / pest or weed control at 31 g/ha / pest or weed control at 62 g/ha / pest or weed control at 125 g/ha: Cyperus difformis, 360 h; for pest or weed control at 250 g/ha: read-out: Plant response rating, Flood, Sedge, Umbrella; for pest or weed control at 31 g/ha / pest or weed control at 62 g/ha / pest or weed control at 125 g/ha / Plant response rating, Sedge, Umbrella: Flood (flooded paddy test), 13 to 15 days; for pest or weed control at 31 g/ha / pest or weed control at 62 g/ha / pest or weed control at 125 g/ha: read-out: Plant response rating, Sedge, Umbrella
# Procedure, shortened: as §4
# [11] = 31 g ai/ha, 0 to 100 scale (0 no effect, 100 complete control)
# [12] = 125 g ai/ha, scale 0 to 100 (0 no effect, 100 complete control)
# [13] = 250 g ai/ha, flooded paddy test, visual rating on 0 to 100 scale (0 no effect, 100 complete control) after 13 to 15 days
# [14] = 31 g ai/ha, scale of 0 to 100 where 0 is no effect and 100 is complete control
# [15] = 62 g ai/ha, scale 0 to 100, 0 is no effect, 100 is complete control
# [16] = 125 g ai/ha, scale 0 to 100, 0 is no effect, 100 is complete control
# [17] = 62 g ai/ha, scale of 0 to 100 where 0 is no effect and 100 is complete control
# [18] = Flood, 31 g ai/ha, scale 0 to 100 (0 no effect, 100 complete control)
compound,measurement,setting,value
"O=C1CCCC(O)=C1C(=O)c1cnc(-c2ccccc2)n(C2CC[S+]([O-])CC2)c1=O (mixture of isomers) [Compound 169, 5-[(2-hydroxy-6-oxo-1-cyclohexen-1-yl)carbonyl]-2-phenyl-3-(trans/cis-tetrahydro-1-oxido-2H-thiopyran-4-yl)-4(3H)-pyrimidinone]","Plant response rating, Ryegrass, Italian","[1]; 16 g ai/ha, 0 to 100 scale",0
same,"Plant response rating, Ryegrass, Italian",[1]; [11],0
same,"Plant response rating, Ryegrass, Italian",[1]; [12],10
same,"Plant response rating, Foxtail, Giant","[2]; 16 g ai/ha, 0 to 100 scale",75
same,"Plant response rating, Foxtail, Giant",[2]; [11],95
same,"Plant response rating, Foxtail, Giant",[2]; [12],100
same,"Plant response rating, Ragweed","[3]; 16 g ai/ha, 0 to 100 scale",98
same,"Plant response rating, Ragweed",[3]; [11],100
same,"Plant response rating, Ragweed",[3]; [12],100
same,"Plant response rating, Canarygrass","[4]; 16 g ai/ha, 0 to 100 scale",5
same,"Plant response rating, Canarygrass",[4]; [11],40
same,"Plant response rating, Canarygrass",[4]; [12],80
same,"Plant response rating, Chickweed","[5]; 16 g ai/ha, 0 to 100 scale",90
same,"Plant response rating, Chickweed",[5]; [11],100
same,"Plant response rating, Chickweed",[5]; [12],100
same,"Plant response rating, Windgrass","[6]; 16 g ai/ha, 0 to 100 scale",5
same,"Plant response rating, Windgrass",[6]; [11],15
same,"Plant response rating, Windgrass",[6]; [12],55
same,"Plant response rating, Barley","[7]; 16 g ai/ha, 0 to 100 scale",0
same,Barley plant response rating (0 to 100 scale),"[7]; 62 g ai/ha, postemergence, 0 is no effect, 100 is complete control, 13 to 15 days",0
same,"Plant response rating, Barley",[7]; [11],0
same,"Plant response rating, Barley",[7]; [12],0
"CCn1ncc(C(=O)c2cnc(-c3ccccc3)n(Cc3ccccc3)c2=O)c1O [Compound 20, 5-[(1-ethyl-5-hydroxy-1H-pyrazol-4-yl)carbonyl]-2-phenyl-3-(phenylmethyl)-4(3H)-pyrimidinone]",pest or weed control at 250 g/ha,[8]; [13],0%
same,pest or weed control at 31 g/ha,[8]; [14],0%
same,pest or weed control at 62 g/ha,[8]; [15],0%
same,pest or weed control at 125 g/ha,[8]; [16],0%
same,pest or weed control at 250 g/ha,[9]; [13],75%
same,pest or weed control at 31 g/ha,[9]; [14],60%
same,pest or weed control at 62 g/ha,[9]; [15],60%
same,pest or weed control at 125 g/ha,[9]; [16],65%
same,plant injury at 250 g/ha,rice (Oryza sativa); [13],15%
same,plant injury at 31 g/ha,rice (Oryza sativa); [14],0%
same,plant injury at 62 g/ha,rice (Oryza sativa); [15],0%
same,plant injury at 125 g/ha,rice (Oryza sativa); [16],0%
same,pest or weed control at 250 g/ha,[10]; [13],60%
same,pest or weed control at 31 g/ha,[10]; [14],0%
same,pest or weed control at 62 g/ha,[10]; [15],40%
same,pest or weed control at 125 g/ha,[10]; [16],50%
COc1cccc(-n2c(-c3ccccc3)ncc(C(=O)C3=C(O)CCCC3=O)c2=O)c1 [Compound 19],"Plant response rating, Flood, Barnyardgrass",[8]; [13],15
same,"Plant response rating, Barnyardgrass",[8]; [14],0
same,"Plant response rating, Barnyardgrass",[8]; [15],0
same,"Plant response rating, Barnyardgrass",[8]; [16],0
same,"Plant response rating, Flood, Ducksalad",[9]; [13],90
same,"Plant response rating, Ducksalad",[9]; [14],0
same,"Plant response rating, Ducksalad",[9]; [15],75
same,"Plant response rating, Ducksalad",[9]; [16],85
same,"Plant response rating, Flood, Rice",rice (Oryza sativa); [13],0
same,"Plant response rating, Rice",rice (Oryza sativa); [14],0
same,"Plant response rating, Rice",rice (Oryza sativa); [15],0
same,"Plant response rating, Rice",rice (Oryza sativa); [16],0
same,"Plant response rating, Flood, Sedge, Umbrella",[10]; [13],95
same,"Plant response rating, Sedge, Umbrella",[10]; [14],0
same,"Plant response rating, Sedge, Umbrella",[10]; [15],70
same,"Plant response rating, Sedge, Umbrella",[10]; [16],85
"CCn1ncc(C(=O)c2cnc(-c3ccccc3)n(Cc3ccccc3)c2=O)c1OS(=O)(=O)c1ccc(C)cc1 [Compound 21, 5-[[1-ethyl-5-[[(4-methylphenyl)sulfonyl]oxy]-1H-pyrazol-4-yl]carbonyl]-2-phenyl-3-(phenylmethyl)-4(3H)-pyrimidinone]",pest or weed control at 250 g/ha,[8]; [13],0%
same,pest or weed control at 31 g/ha,[8]; [14],0%
same,pest or weed control at 62 g/ha,[8]; [15],0%
same,pest or weed control at 125 g/ha,[8]; [16],0%
same,pest or weed control at 250 g/ha,[9]; [13],75%
same,pest or weed control at 31 g/ha,[9]; [14],60%
same,pest or weed control at 62 g/ha,[9]; [15],70%
same,pest or weed control at 125 g/ha,[9]; [16],70%
same,plant injury at 250 g/ha,rice (Oryza sativa); [13],0%
same,plant injury at 31 g/ha,rice (Oryza sativa); [14],0%
same,plant injury at 62 g/ha,rice (Oryza sativa); [15],0%
same,plant injury at 125 g/ha,rice (Oryza sativa); [16],0%
same,pest or weed control at 250 g/ha,[10]; [13],65%
same,pest or weed control at 31 g/ha,[10]; [14],40%
same,pest or weed control at 62 g/ha,[10]; [15],50%
same,pest or weed control at 125 g/ha,[10]; [16],60%
"O=C(c1cnoc1C1CC1)c1cnc(-c2ccccc2)n(-c2ccccc2)c1=O [Compound 223, 5-[(5-cyclopropyl-4-isoxazolyl)-carbonyl]-2,3-diphenyl-4(3H)-pyrimidinone]",pest or weed control at 250 g/ha,[8]; [13],0%
same,pest or weed control at 62 g/ha,[8]; [17],0%
same,pest or weed control at 125 g/ha,[8]; [16],0%
same,Barnyardgrass plant response rating,[8]; [18],0
same,Ducksalad plant response rating,[9]; [18],0
same,pest or weed control at 250 g/ha,[9]; [13],0%
same,pest or weed control at 62 g/ha,[9]; [17],0%
same,pest or weed control at 125 g/ha,[9]; [16],0%
same,Rice plant response rating,rice (Oryza sativa); [18],0
same,plant injury at 250 g/ha,rice (Oryza sativa); [13],0%
same,plant injury at 62 g/ha,rice (Oryza sativa); [17],0%
same,plant injury at 125 g/ha,rice (Oryza sativa); [16],0%
same,pest or weed control at 250 g/ha,[10]; [13],0%
same,pest or weed control at 62 g/ha,[10]; [17],0%
same,pest or weed control at 125 g/ha,[10]; [16],0%
same,"Sedge, Umbrella plant response rating",[10]; [18],0
